Assay results reported in PubChem BioAssay AID179 (DTP/NCI, 2004).
Calls of active or inactive are those of the source.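 How the source made its calls: active means compounds giving half or more protection of infected cells from virus-caused growth loss, again on retest; inactive means the rest.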

Test system: CEM cells HIV-1 protection, formazan growth assay
Assay: NCI AIDS Antiviral Assay
Conditions: for IC50: measured here: growth of uninfected CEM cells
In short: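 Human CEM cells, uninfected and HIV-1-infected, received five drug concentrations, and growth was read by soluble formazan assay. Compounds giving at least 50% protection were retested; reproducible 100% protection defined confirmed active.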

| Compound | EC50 | IC50 | outcome |
| --- | --- | --- | --- |
| N#CC1(C#N)C2CCCCC23OC(=N)C1(C#N)C(c1ccco1)O3 (stereo not drawn) | > 200 µM | 5.75 µM |  |
| COc1ccc(NC(=O)/C(=C/n2c(=S)[nH]c3cc(C)ccc32)C(C)=O)cc1 | > 200 µM | > 200 µM |  |
| O=C1CSC(=Nc2ccccc2)N1c1ccc(-n2c(-c3ccc(N=Cc4ccc(Cl)cc4)cc3)nc3ccccc3c2=O)cc1 | > 56.2 µM | > 56.2 µM |  |
| O=C(NO)C(=O)Nc1cc(Cl)ccc1Cl | > 145 µM | 66.1 µM |  |
| O=C(/C=C/c1ccc(O)c(O)c1)OCC(OC(=O)/C=C/c1ccc(O)c(O)c1)C(=O)O (stereo not drawn) | > 200 µM | 28.2 µM |  |
| COC(=O)Nc1cn2ccsc2n1 |  |  | inactive |
| C[C@@H]1S[C@H](c2c(F)cccc2Cl)n2c1nc1ccccc12 | 3.55 µM | 12.9 µM |  |
| Cc1ccc(Cc2n[nH]c(=O)n2-c2ccccc2)cc1 |  |  | inactive |
| Nc1c(Cl)cc(Cl)cc1C(=O)O | > 200 µM | 195 µM |  |
| NC(CCc1nc(-c2ccccc2)cs1)C(=O)O (stereo not drawn) |  |  | inactive |
| O=C(CCc1ccc(O)c(O)c1)NCCc1cc(O)c(O)c(O)c1 | > 200 µM | 5.01 µM |  |
| COc1c(O)c2c(=O)cc(OC)c3c4c(OC)cc(=O)c5c(O)c(OC)c6c(c(c1CC(C)=C6OC(C)=O)c23)c54 | > 4.79 µM | 1.29 µM |  |
| COC(=O)c1ccc(/C=C/c2cc(O)ccc2O)cc1 | > 20 µM | 3.09 µM |  |
| CC(=O)NNc1nc(C)c(C(=O)/C=C/c2ccc(NC(C)=O)cc2)s1 | > 28.2 µM | > 28.2 µM |  |
| O=c1ccn([C@@H]2C[C@H](CO)[C@H](O)C2)c(=O)[nH]1 | > 1100 µM | > 1100 µM |  |
| OCC1CC(F)C(n2cnc3c(NO)ncnc32)O1 (stereo not drawn) | > 151 µM | > 151 µM |  |
| CC(=N/NC(=S)N1CCCCCC1)/C(C)=N\NC(=S)N1CCCCCC1 | > 100 µM | 8.71 µM |  |
| Nc1ccc2c(SCC(=O)Nc3ccccc3-c3ccccc3NC(=O)CSc3c4ccccc4nc4cc(N)ccc34)c3ccccc3nc2c1 | > 7.24 µM | > 7.24 µM |  |
| N#Cc1cn(C2OC(CO)C(O)C2O)c2ncnc(N)c12 (stereo not drawn) | > 0.2 µM | 0.00151 µM |  |
| O=C1CCC2(C=Nc3ccccc32)C2Cc3ccccc3N12 (stereo not drawn) | > 13.2 µM | > 13.2 µM |  |
| CC(=O)Nc1ccc2c(C)c3c4ccccc4n(C)c3nc2n1 | > 200 µM | 5.25 µM |  |

| Compound | EC50 | IC50 | outcome |
| --- | --- | --- | --- |
| O=C(O)Cc1ccccc1 | > 200 µM | > 200 µM |  |
| CCCc1cc(=O)oc2c3c(c4c(c12)OC(C)(C)C=C4)O[C@@H](C)[C@H](C)[C@@H]3O[Si](C)(C)C(C)(C)C | > 200 µM | > 200 µM |  |
| CCOC(=O)C1([Se]c2ccccc2)CCCC1=O (stereo not drawn) | > 219 µM | 20.4 µM |  |
| O=c1ccnc(SSc2nccc(=O)[nH]2)[nH]1 | > 200 µM | > 200 µM |  |
| CCOC(=O)c1cc2c(nc1N)-c1ncccc1CC2 | > 19.5 µM | 0.219 µM |  |
| CC(=O)O[C@H]1CCCC[C@H]1c1ccccc1 | > 309 µM | > 309 µM |  |
| COC(=O)C(=O)C(C(=O)C=C(C)C)C(=O)C(=O)Nc1ccc(Cl)cc1C (stereo not drawn) |  |  | inactive |
| O=C1OC(OC/C(Br)=C(\Br)COC2OC(=O)C(Cl)=C2Cl)C(Cl)=C1Cl (stereo not drawn) | > 200 µM | 3.09 µM |  |
| CCCCNC(=O)/C(=C/c1ccc2c(c1)OCO2)NC(=O)c1ccccc1 | > 200 µM | > 200 µM |  |
| COC(=O)C1=C2Nc3ccccc3C[C@@]23CCN2CCC[C@@](C(C)OC(=O)C=C(C)C)(C1)C23 (stereo partly drawn) | > 200 µM | 23.4 µM |  |
| CC(=N\NC(=O)c1ccccc1)/C(C)=N/NC(=O)c1ccccc1 | > 30.9 µM | > 30.9 µM |  |
| COc1ccc(C/C=C(\C)CCO)cc1 | > 200 µM | 126 µM |  |
| COc1cccc(/C=C2\S/C(=N/Nc3nc(-c4ccc([N+](=O)[O-])cc4)cs3)NC2=O)c1O | > 200 µM | 29.5 µM |  |
| CC(=O)c1cccc(NC(=O)C(=O)Nn2c(N)nnc2N)c1 | > 158 µM | > 158 µM |  |
| CCc1ccc(/C(C#N)=C/c2ccc(OC)cc2)cc1 | > 200 µM | 3.98 µM |  |
| CCNc1cc2c3c(c1)CCN3CCC2 | > 60.3 µM | 10.2 µM |  |
| Cc1cc(C2(c3cc(C)c(O)c4ncccc34)OC(=O)c3ccccc32)c2cccnc2c1O | > 2 µM | 0.102 µM |  |
| CC1(C)OC2OC(COC(=S)SSC(=S)OCC3OC4OC(C)(C)OC4C4OC(C)(C)OC34)C3OC(C)(C)OC3C2O1 (stereo not drawn) | > 200 µM | 5.62 µM |  |
| C=CCCC1CCCNC1=S (stereo not drawn) | > 776 µM | 708 µM |  |
| Cc1cc2c(c(=O)[nH]1)C(=O)NC2=O | > 813 µM | 468 µM |  |
